Drawing on patent US8461328B2, “Tricyclic heterocyclic compounds, compositions and methods of use thereof” (Genentech, Inc., priority 2010, dated 2013), this text covers Ki for 25 molecules.

As a reminder, the Ki is a dissociation constant, usually derived from enzyme kinetics or from competition with a known ligand.

Holding throughout (assay type): biochemical
In one test the target is T1, JAK1 (Homo sapiens, UniProt P23458).
T1 construct: made in house; host or cells: SF9 insect cells (baculovirus)
The test is described as follows: JAK1 inhibition (Table 4). As to conditions: read-out: JAK1 Ki.

The target of the next test is T2, JAK2 (Homo sapiens, UniProt O60674).
T2 construct: made in house; host or cells: SF9 insect cells (baculovirus)
The test is described as follows: JAK2 inhibition (Table 4). As to conditions: read-out: JAK2 Ki.

The target of the next test is T3, JAK3 (Homo sapiens, UniProt P52333).
T3 construct: made in house; host or cells: SF9 insect cells (baculovirus)
As to the kind of experiment: JAK3 inhibition (Table 4). As to conditions: read-out: JAK3 Ki.

The target in the next test is T4, TYK2 (Homo sapiens, UniProt P29597).
T4 construct: made in house; host or cells: SF9 insect cells (baculovirus)
T4 sequence (P29597 873-1187): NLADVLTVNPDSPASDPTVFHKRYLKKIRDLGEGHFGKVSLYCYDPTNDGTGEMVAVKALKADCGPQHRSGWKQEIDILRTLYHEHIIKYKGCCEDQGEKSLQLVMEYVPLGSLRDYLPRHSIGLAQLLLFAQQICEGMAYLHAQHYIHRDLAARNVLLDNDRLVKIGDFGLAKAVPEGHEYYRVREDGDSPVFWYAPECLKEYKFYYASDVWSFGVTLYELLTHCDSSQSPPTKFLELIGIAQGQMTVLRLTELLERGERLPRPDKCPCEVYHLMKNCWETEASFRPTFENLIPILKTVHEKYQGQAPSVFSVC
As to the kind of experiment: TYK2 inhibition (Table 4).

T1 sequence (P23458 852-1154): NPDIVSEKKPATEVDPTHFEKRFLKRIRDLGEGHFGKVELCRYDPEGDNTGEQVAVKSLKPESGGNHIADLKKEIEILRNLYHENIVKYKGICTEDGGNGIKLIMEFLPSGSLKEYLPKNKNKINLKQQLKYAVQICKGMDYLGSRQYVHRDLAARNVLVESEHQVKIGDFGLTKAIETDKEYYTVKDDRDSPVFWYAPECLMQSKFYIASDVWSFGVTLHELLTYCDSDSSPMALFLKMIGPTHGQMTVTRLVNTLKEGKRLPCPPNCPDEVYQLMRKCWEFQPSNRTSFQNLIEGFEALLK
T2 sequence (O60674 812-1132): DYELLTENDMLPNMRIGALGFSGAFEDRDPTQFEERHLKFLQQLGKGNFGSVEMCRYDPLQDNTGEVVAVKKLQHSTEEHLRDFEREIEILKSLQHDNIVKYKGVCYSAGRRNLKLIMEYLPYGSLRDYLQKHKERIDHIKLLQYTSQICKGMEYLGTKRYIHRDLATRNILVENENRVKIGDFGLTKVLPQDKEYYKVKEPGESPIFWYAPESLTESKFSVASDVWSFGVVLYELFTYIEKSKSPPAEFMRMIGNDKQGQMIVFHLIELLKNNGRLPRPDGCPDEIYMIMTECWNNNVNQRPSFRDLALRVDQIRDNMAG
T3 sequence (P52333 783-1124): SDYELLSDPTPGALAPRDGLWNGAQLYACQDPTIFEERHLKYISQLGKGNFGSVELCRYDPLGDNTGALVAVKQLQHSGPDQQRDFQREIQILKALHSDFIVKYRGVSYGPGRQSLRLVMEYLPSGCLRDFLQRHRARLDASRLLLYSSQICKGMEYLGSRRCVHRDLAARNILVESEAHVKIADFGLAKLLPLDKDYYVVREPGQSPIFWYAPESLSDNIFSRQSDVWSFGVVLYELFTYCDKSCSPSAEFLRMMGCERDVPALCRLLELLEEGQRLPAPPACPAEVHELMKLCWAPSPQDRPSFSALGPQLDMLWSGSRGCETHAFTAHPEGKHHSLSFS

For the molecule `N#CCC(=O)N1CCC[C@@H](n2c(CCO)nc3cnc4[nH]ccc4c32)C1` [Example 17, 3-{(R)-3-[2-(2-Hydroxy-ethyl)-6H-1,2,3,5,6-tetraaza-as-indacen-1-yl]-piperidin-1-yl}-3-oxopropionitrile], the Ki at JAK1 was found to be 4.04 nM; at JAK2, 17.1 nM; on JAK3, 79.1 nM; at TYK2 it was 29.8 nM.

For the molecule `c1ccc(CN2CCC[C@@H](n3nnc4cnc5[nH]ccc5c43)C2)cc1` [Example 18, 1-((R)-1-Benzyl-piperidin-3-yl)-1,6-dihydro-1,2,3,5,6-pentaaza-as-indacene], the Ki turned out to be 24.6 nM on JAK1, 40.1 nM at JAK2, 323 nM on JAK3 and 273 nM at TYK2.

On to `N#CCC(=O)N1CCC[C@@H](n2nnc3cnc4[nH]ccc4c32)C1` [Example 19, 3-Oxo-3-[(R)-3-(6H-1,2,3,5,6-pentaaza-as-indacen-1-yl)-piperidin-1-yl]propionitrile], for which the Ki was 1.49 nM at JAK1, 3.72 nM on JAK2, 24.5 nM at JAK3 and 20.3 nM on TYK2.

Consider `CNC(=O)Cc1nc2cnc3[nH]ccc3c2n1C1CCN(Cc2ccccc2)CC1` [Example 21, 2-[1-(1-Benzyl-piperidin-4-yl)-1,6-dihydro-1,2,3,5,6-tetraaza-as-indacen-2-yl]-N-methyl acetamide], for which the Ki at JAK1 stood at 9.93 nM; on JAK2 it was 38.5 nM; on JAK3, 37.6 nM; on TYK2, 627 nM.

Regarding `OCc1nc2cnc3[nH]ccc3c2n1C1CCN(Cc2ccccc2)CC1` [Example 22, [1-(1-Benzyl-piperidin-4-yl)-1,6-dihydro-1,2,3,5,6-tetraaza-as-indacen-2-yl]methanol], the Ki at JAK1 amounted to 1.73 nM; on JAK2 it was 6.44 nM; on JAK3, 10.8 nM; on TYK2, 69.9 nM.

Regarding `O=C(Cc1nc2cnc3[nH]ccc3c2n1C1CCN(Cc2ccccc2)CC1)N1CCOCC1` [Example 23, 2-[1-(1-Benzyl-piperidin-4-yl)-1,6-dihydro-1,2,3,5,6-tetraaza-as-indacen-2-yl]-1-morpholin-4-yl-ethanone], the Ki at JAK1 was 6.22 nM; at JAK2, 62.7 nM; on JAK3 it was 9.98 nM; on TYK2, 616 nM.

In the case of `O=C1CCCN1Cc1nc2cnc3[nH]ccc3c2n1C1CCN(Cc2ccccc2)CC1` [Example 24, 1-[1-(1-Benzyl-piperidin-4-yl)-1,6-dihydro-1,2,3,5,6-tetraaza-as-indacen-2-ylmethyl]-pyrrolidin-2-one], the inhibition constant (Ki) on JAK1 came out at 10.4 nM; at JAK2, 68.6 nM; on JAK3, 29.2 nM; on TYK2 it was 735 nM.

`CC(=O)N1CCC[C@@H](n2cnc3cnc4[nH]ccc4c32)C1` [Example 30, 1-[(R)-3-(6H-1,3,5,6-Tetraaza-as-indacen-1-yl)-piperidin-1-yl]ethanone]: the Ki on JAK1 came to 29.2 nM; on JAK2, 42.2 nM; on JAK3, 139 nM; at TYK2 it was 141 nM.

Consider `O=C(c1cccnc1)N1CCC[C@@H](n2cnc3cnc4[nH]ccc4c32)C1` [Example 31, Pyridin-3-yl-[(R)-3-(6H-1,3,5,6-tetraaza-as-indacen-1-yl)-piperidin-1-yl]methanone], for which the inhibition constant (Ki) on JAK1 was determined as 13.2 nM; at JAK2, 25.9 nM; at JAK3, 419 nM; at TYK2, 159 nM.

Consider `CN(C)CC(=O)N1CCC[C@@H](n2cnc3cnc4[nH]ccc4c32)C1` [Example 32, 2-Dimethylamino-1-[(R)-3-(6H-1,3,5,6-tetraaza-as-indacen-1-yl)-piperidin-1-yl]ethanone], for which the Ki is 181 nM on JAK1, 568 nM at JAK2, 1820 nM at JAK3 and 3180 nM at TYK2.

Consider `O=C(c1cccnc1)N1CCC(n2cnc3cnc4[nH]ccc4c32)CC1` [Example 34, Pyridin-3-yl-[4-(6H-1,3,5,6-tetraaza-as-indacen-1-yl)-piperidin-1-yl]methanone], for which the Ki at JAK1 was determined as 31.5 nM; on JAK2 it was 63.1 nM; on JAK3 it was 1070 nM; on TYK2 it was 423 nM.

`N#CCC(=O)N1CC[C@@H](n2cnc3cnc4[nH]ccc4c32)C1` [Example 37, 3-Oxo-3-[(R)-3-(6H-1,3,5,6-tetraaza-as-indacen-1-yl)-pyrrolidin-1-yl]propionitrile]: the inhibition constant Ki on JAK1 was found to be 11.3 nM; on JAK2, 44.2 nM; at JAK3, 144 nM; at TYK2, 198 nM.

As to `N#CCC(=O)N1CC(n2cnc3cnc4[nH]ccc4c32)C1` [Example 38, 3-Oxo-3-[3-(6H-1,3,5,6-tetraaza-as-indacen-1-yl)-azetidin-1-yl]propionitrile], the Ki came to 412 nM at JAK1, 315 nM at JAK2, 713 nM on JAK3 and 1970 nM at TYK2.

`c1cncc(CN2CCC[C@@H](n3cnc4cnc5[nH]ccc5c43)C2)c1` [Example 39, 1-((R)-1-Pyridin-3-ylmethyl-piperidin-3-yl)-1,6-dihydro-1,3,5,6-tetraaza-as-indacene]: the Ki at JAK1 was 35.9 nM; on JAK2, 102 nM; on JAK3, 182 nM; on TYK2 it was 330 nM.

For the molecule `N#Cc1ccc(CN2CCC[C@@H](n3cnc4cnc5[nH]ccc5c43)C2)cc1` [Example 40, 4-[(R)-3-(6H-1,3,5,6-Tetraaza-as-indacen-1-yl)-piperidin-1-ylmethyl]benzonitrile], the Ki at JAK1 turned out to be 6.35 nM; on JAK2, 17.8 nM; at JAK3, 66.9 nM; at TYK2, 107 nM.

Regarding `N#Cc1ccccc1CN1CCC[C@@H](n2cnc3cnc4[nH]ccc4c32)C1` [Example 41, 2-[(R)-3-(6H-1,3,5,6-Tetraaza-as-indacen-1-yl)-piperidin-1-ylmethyl]benzonitrile], the inhibitory constant (Ki) on JAK1 was 34.4 nM; at JAK2, 48.9 nM; at JAK3, 153 nM; on TYK2, 159 nM.

Consider `c1ncc(CN2CCC[C@@H](n3cnc4cnc5[nH]ccc5c43)C2)cn1` [Example 42, 1-((R)-1-Pyrimidin-5-ylmethyl-piperidin-3-yl)-1,6-dihydro-1,3,5,6-tetraaza-as-indacene], for which the inhibitory constant (Ki) at JAK1 was 14.9 nM; at JAK2 it was 41 nM; on JAK3, 93 nM; on TYK2, 122 nM.

Take `c1coc(CN2CCC[C@@H](n3cnc4cnc5[nH]ccc5c43)C2)n1` [Example 43, 1-((R)-1-Oxazol-2-ylmethyl-piperidin-3-yl)-1,6-dihydro-1,3,5,6-tetraaza-as-indacene]: the inhibition constant (Ki) at JAK1 is 43.1 nM; at JAK2, 72.9 nM; on JAK3, 177 nM; at TYK2 it was 204 nM.

In the case of `Cn1ccnc1CN1CCC[C@@H](n2cnc3cnc4[nH]ccc4c32)C1` [Example 44, 1-[(R)-1-(1-Methyl-1H-imidazol-2-ylmethyl)-piperidin-3-yl]-1,6-dihdyro-1,3,5,6-tetraaza-as-indacene], the Ki on JAK1 came to 105 nM; at JAK2, 121 nM; on JAK3, 241 nM; at TYK2 it was 423 nM.

Regarding `N#Cc1cccc(CN2CCC[C@@H](n3cnc4cnc5[nH]ccc5c43)C2)c1` [Example 45, 3-[(R)-3-(6H-1,3,5,6-Tetraaza-as-indacen-1-yl)-piperidin-1-ylmethyl]benzonitrile], the inhibition constant Ki at JAK1 came out at 7.58 nM; on JAK2 it was 18 nM; at JAK3 it was 27.5 nM; on TYK2, 129 nM.

For `COc1ccc(CN2CCC[C@@H](n3cnc4cnc5[nH]ccc5c43)C2)cc1` [Example 46, 1-[(R)-1-(4-Methoxy-benzyl)-piperidin-3-yl]-1,6-dihydro-1,3,5,6-tetraaza-as-indacene], the Ki at JAK1 is 72.4 nM; at JAK2, 160 nM; on JAK3, 414 nM; on TYK2, 913 nM.

Turning to `Fc1cccc(CN2CCC[C@@H](n3cnc4cnc5[nH]ccc5c43)C2)c1` [Example 47, 1-[(R)-1-(3-Fluoro-benzyl)-piperidin-3-yl]-1,6-dihydro-1,3,5,6-tetraaza-as-indacene], the Ki is 13.1 nM on JAK1, 28.9 nM on JAK2, 52.2 nM on JAK3 and 101 nM on TYK2.

Turning to `N#Cc1ccc(CN2CCC(n3cnc4cnc5[nH]ccc5c43)CC2)cc1` [Example 48, 4-[4-(6H-1,3,5,6-Tetraaza-as-indacen-1-yl)-piperidin-1-ylmethyl]benzonitrile], the inhibitory constant (Ki) on JAK1 turned out to be 1.3 nM; on JAK2, 2.67 nM; on JAK3, 8.57 nM; on TYK2, 30.9 nM.

Consider `N#Cc1cccc(CN2CCC(n3cnc4cnc5[nH]ccc5c43)CC2)c1` [Example 49, 3-[4-(6H-1,3,5,6-Tetraaza-as-indacen-1-yl)-piperidin-1-ylmethyl]benzonitrile], for which the inhibition constant Ki at JAK1 amounted to 0.3 nM; at JAK2, 0.98 nM; on JAK3, 26.5 nM; at TYK2, 35.7 nM.

As for `c1cncc(CN2CCC(n3cnc4cnc5[nH]ccc5c43)CC2)c1` [Example 50, 1-(1-Pyridin-3-ylmethyl-piperidin-4-yl)-1,6-dihydro-1,3,5,6-tetraaza-as-indacene], the Ki on JAK1 worked out at 2.48 nM; on JAK2, 4.84 nM; on JAK3, 18 nM; at TYK2, 88.8 nM.
